PubChem BioAssay (NCI)
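Abbreviation: GI50, concentration required for 50% inhibition of growth. TGI denotes the concentration required for complete inhibition of growth.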

Columns and labels:
Experiment in all cases: NCI-60 cell line screen, 384-well format
[1] = system: 786-0 renal
[2] = system: A498 renal
[3] = system: A549 NSCLC
[4] = system: ACHN renal
[5] = system: BT-549 breast
[6] = system: CAKI-1 renal
[7] = system: CCRF-CEM leukemia
[8] = system: COLO 205 colon
[9] = system: DU-145 prostate
[10] = system: EKVX NSCLC
[11] = system: HCC-2998 colon
[12] = system: HCT-15 colon
[13] = system: HL-60(TB) leukemia
[14] = system: HOP-62 NSCLC
[15] = system: HOP-92 NSCLC
[16] = system: HS 578T breast
[17] = system: HT29 colon
[18] = system: IGROV1 ovarian
[19] = system: KM12 colon
[20] = system: M14 melanoma
[21] = system: MALME-3M melanoma
[22] = system: MCF7 breast
[23] = system: MDA-MB-231 breast
[24] = system: MDA-MB-435 melanoma
[25] = system: MDA-MB-468 breast
[26] = system: MOLT-4 leukemia
[27] = system: NCI-H226 lung
[28] = system: NCI-H23 lung
[29] = system: NCI-H322M lung
[30] = system: NCI-H460 NSCLC
[31] = system: NCI-H522 lung
[32] = system: NCI/ADR-RES ovarian
[33] = system: OVCAR-3 ovarian
[34] = system: OVCAR-4 ovarian
[35] = system: OVCAR-5 ovarian
[36] = system: OVCAR-8 ovarian
[37] = system: PC-3 prostate
[38] = system: RPMI-8226 leukemia
[39] = system: RXF 393 renal
[40] = system: SF-268 CNS
[41] = system: SF-295 CNS
[42] = system: SF-539 CNS
[43] = system: SK-MEL-2 melanoma
[44] = system: SK-MEL-28 melanoma
[45] = system: SK-MEL-5 melanoma
[46] = system: SK-OV-3 ovarian
[47] = system: SN12C renal
[48] = system: SNB-19 CNS
[49] = system: SNB-75 CNS
[50] = system: SR leukemia
[51] = system: SW-620 colon
[52] = system: T-47D breast
[53] = system: TK-10 renal
[54] = system: U251 glioblastoma
[55] = system: UACC-257 melanoma
[56] = system: UACC-62 melanoma
[57] = system: LOX IMVI melanoma
[58] = system: UO-31 renal

CC1(C)CC(O)CC(C)(C)N1O
GI50 [1]: > 100 µM
TGI [1]: > 100 µM
GI50 [2]: > 100 µM
TGI [2]: > 100 µM
GI50 [3]: > 100 µM
TGI [3]: > 100 µM
GI50 [4]: > 100 µM
TGI [4]: > 100 µM
GI50 [5]: > 100 µM
TGI [5]: > 100 µM
GI50 [6]: > 100 µM
TGI [6]: > 100 µM
GI50 [7]: 47.2 µM
TGI [7]: > 100 µM
GI50 [8]: > 100 µM
TGI [8]: > 100 µM
GI50 [9]: > 100 µM
TGI [9]: > 100 µM
GI50 [10]: > 100 µM
TGI [10]: > 100 µM
GI50 [11]: > 100 µM
TGI [11]: > 100 µM
GI50 [12]: > 100 µM
TGI [12]: > 100 µM
GI50 [13]: > 100 µM
TGI [13]: > 100 µM
GI50 [14]: > 100 µM
TGI [14]: > 100 µM
GI50 [15]: > 100 µM
TGI [15]: > 100 µM
GI50 [16]: > 100 µM
TGI [16]: > 100 µM
GI50 [17]: > 100 µM
TGI [17]: > 100 µM
GI50 [18]: > 100 µM
TGI [18]: > 100 µM
GI50 [19]: > 100 µM
TGI [19]: > 100 µM
GI50 [20]: > 100 µM
TGI [20]: > 100 µM
GI50 [21]: > 100 µM
TGI [21]: > 100 µM
GI50 [22]: > 100 µM
TGI [22]: > 100 µM
GI50 [23]: > 100 µM
TGI [23]: > 100 µM
GI50 [24]: > 100 µM
TGI [24]: > 100 µM
GI50 [25]: 29.8 µM
TGI [25]: > 100 µM
GI50 [26]: 44.5 µM
TGI [26]: > 100 µM
GI50 [27]: > 100 µM
TGI [27]: > 100 µM
GI50 [28]: > 100 µM
TGI [28]: > 100 µM
GI50 [29]: > 100 µM
TGI [29]: > 100 µM
GI50 [30]: > 100 µM
TGI [30]: > 100 µM
GI50 [31]: > 100 µM
TGI [31]: > 100 µM
GI50 [32]: > 100 µM
TGI [32]: > 100 µM
GI50 [33]: 71.7 µM
TGI [33]: > 100 µM
GI50 [34]: 19.9 µM
TGI [34]: > 100 µM
GI50 [35]: > 100 µM
TGI [35]: > 100 µM
GI50 [36]: > 100 µM
TGI [36]: > 100 µM
GI50 [37]: > 100 µM
TGI [37]: > 100 µM
GI50 [38]: > 100 µM
TGI [38]: > 100 µM
GI50 [39]: > 100 µM
TGI [39]: > 100 µM
GI50 [40]: > 100 µM
TGI [40]: > 100 µM
GI50 [41]: > 100 µM
TGI [41]: > 100 µM
GI50 [42]: > 100 µM
TGI [42]: > 100 µM
GI50 [43]: > 100 µM
TGI [43]: > 100 µM
GI50 [44]: > 100 µM
TGI [44]: > 100 µM
GI50 [45]: > 100 µM
TGI [45]: > 100 µM
GI50 [46]: > 100 µM
TGI [46]: > 100 µM
GI50 [47]: > 100 µM
TGI [47]: > 100 µM
GI50 [48]: > 100 µM
TGI [48]: > 100 µM
GI50 [49]: > 100 µM
TGI [49]: > 100 µM
GI50 [50]: > 100 µM
TGI [50]: > 100 µM
GI50 [51]: > 100 µM
TGI [51]: > 100 µM
GI50 [52]: > 100 µM
TGI [52]: > 100 µM
GI50 [53]: > 100 µM
TGI [53]: > 100 µM
GI50 [54]: > 100 µM
TGI [54]: > 100 µM
GI50 [55]: > 100 µM
TGI [55]: > 100 µM
GI50 [56]: > 100 µM
TGI [56]: > 100 µM

N[C@@H]1CCCN(c2c(Br)cnc3[nH]cc(NC(=O)C4CC4)c23)C1
GI50 [1]: 0.0268 µM
TGI [1]: 0.0789 µM
GI50 [2]: 0.012 µM
TGI [2]: 0.0312 µM
GI50 [3]: 0.303 µM
TGI [3]: > 100 µM
GI50 [5]: 0.0186 µM
TGI [5]: 0.0427 µM
GI50 [6]: 0.361 µM
TGI [6]: 14.2 µM
GI50 [7]: 0.019 µM
TGI [7]: 0.0375 µM
GI50 [8]: 0.269 µM
TGI [8]: 2.69 µM
GI50 [9]: 0.172 µM
TGI [9]: > 100 µM
GI50 [10]: 0.184 µM
TGI [10]: > 100 µM
GI50 [11]: 0.0153 µM
TGI [11]: 0.0455 µM
GI50 [13]: 0.018 µM
TGI [13]: 0.0354 µM
GI50 [14]: 0.0365 µM
TGI [14]: 0.202 µM
GI50 [15]: 0.0192 µM
TGI [15]: 0.0577 µM
GI50 [16]: 0.0143 µM
TGI [16]: 0.041 µM
GI50 [17]: 0.197 µM
TGI [17]: 0.524 µM
GI50 [18]: 0.0611 µM
TGI [18]: > 100 µM
GI50 [19]: 0.0574 µM
TGI [19]: > 100 µM
GI50 [57]: 0.276 µM
TGI [57]: 1.87 µM
GI50 [20]: 0.0191 µM
TGI [20]: 0.0417 µM
GI50 [21]: 0.0234 µM
TGI [21]: 0.219 µM
GI50 [22]: 0.0251 µM
TGI [22]: > 100 µM
GI50 [23]: 0.318 µM
TGI [23]: 18.3 µM
GI50 [24]: 0.0305 µM
TGI [24]: 0.124 µM
GI50 [25]: 0.02 µM
TGI [25]: 0.076 µM
GI50 [26]: 0.0141 µM
TGI [26]: 0.0278 µM
GI50 [27]: 7.47 µM
TGI [27]: 56.1 µM
GI50 [28]: 0.021 µM
TGI [28]: 0.0695 µM
GI50 [30]: 0.118 µM
TGI [30]: 1.5 µM
GI50 [31]: 1.51 µM
TGI [31]: 9.61 µM
GI50 [32]: 0.0517 µM
TGI [32]: 0.197 µM
GI50 [34]: 0.0177 µM
TGI [34]: 0.0448 µM
GI50 [35]: 0.0794 µM
TGI [35]: 0.433 µM
GI50 [36]: 0.0287 µM
TGI [36]: 0.112 µM
GI50 [37]: 11.8 µM
TGI [37]: 65.6 µM
GI50 [38]: 0.0187 µM
TGI [38]: 0.0979 µM
GI50 [39]: 0.0207 µM
TGI [39]: 0.0455 µM
GI50 [40]: 0.241 µM
TGI [40]: > 100 µM
GI50 [41]: 0.0235 µM
TGI [41]: 0.0688 µM
GI50 [42]: 0.0174 µM
TGI [42]: 0.0358 µM
GI50 [44]: 0.244 µM
TGI [44]: > 100 µM
GI50 [45]: 0.0277 µM
TGI [45]: 0.128 µM
GI50 [46]: 0.0342 µM
TGI [46]: 0.162 µM
GI50 [47]: 0.45 µM
TGI [47]: 4.27 µM
GI50 [48]: 0.22 µM
TGI [48]: > 100 µM
GI50 [49]: 0.262 µM
TGI [49]: 4.58 µM
GI50 [50]: 0.0151 µM
TGI [50]: 0.0294 µM
GI50 [51]: 0.379 µM
TGI [51]: 36.4 µM
GI50 [52]: > 100 µM
TGI [52]: > 100 µM
GI50 [53]: 0.0242 µM
TGI [53]: 0.0647 µM
GI50 [55]: 0.368 µM
TGI [55]: > 100 µM
GI50 [58]: 0.0527 µM
TGI [58]: > 100 µM
